What was measured:
[1] = (§1) Excretory balance of radioactivity in urine following intravenous 14C-epirubicin at 1 mg.Kg-1 dose in rat; type: ADME, organism-based, SD; design: dose 1 mg.Kg-1, dosed compound id 2.46808e+06, dosed compound name 14C-Epirubicin, route intravenous, sampling time 0-4 h; details: in vivo
[2] = (§2) Excretory balance of radioactivity in faeces following intravenous 14C-epirubicin at 1 mg.Kg-1 dose in rat; type: ADME, organism-based, SD, Feces; design: dose 1 mg.Kg-1, dosed compound id 2.46808e+06, dosed compound name 14C-Epirubicin, route intravenous, sampling time 0-2 h; details: in vivo
[3] = (§3) Excretory balance of radioactivity in bile following intravenous 14C-epirubicin at 1 mg.Kg-1 dose in rat; type: ADME, organism-based, SD; design: dose 1 mg.Kg-1, dosed compound id 2.46808e+06, dosed compound name 14C-Epirubicin, route intravenous, sampling time 0-2 h; details: in vivo
[4] = as §1; type: ADME, organism-based, SD; design: dose 1 mg.Kg-1, dosed compound id 2.46808e+06, dosed compound name 14C-Epirubicin, route intravenous, sampling time 0-2 h; details: in vivo
[5] = (§4) Excretory balance of radioactivity in urine following intravenous 14C-epirubicin at 0.45 ug.eq.Kg-1 dose in rat; type: ADME, organism-based, SD; design: dose 0.45 ug.eq.Kg-1, dosed compound id 2.46808e+06, dosed compound name 14C-Epirubicin, route intravenous, sampling time 0-8 h, study doses 0.45 ug.eq.Kg-1; details: in vivo
[6] = as §3; type: ADME, organism-based, SD; design: dose 1 mg.Kg-1, dosed compound id 2.46808e+06, dosed compound name 14C-Epirubicin, route intravenous, sampling time 0-24 h; details: in vivo
[7] = as §2; type: ADME, organism-based, SD, Feces; design: dose 1 mg.Kg-1, dosed compound id 2.46808e+06, dosed compound name 14C-Epirubicin, route intravenous, sampling time 0-48 h; details: in vivo
[8] = Excretion of radioactivity in urine following single intravenous 14C-epirubicin at 75 mg.m-2 dose in cancer patients; type: ADME, organism-based; design: dose 75 mg.m-2, dosed compound id 2.46808e+06, dosed compound name 14C-Epirubicin, regimen Single, sampling time 10 Day; details: human, in vivo, at 75 mg/m2
[9] = as §4; type: ADME, organism-based, SD; design: dose 0.45 ug.eq.Kg-1, dosed compound id 2.46808e+06, dosed compound name 14C-Epirubicin, route intravenous, sampling time 0-1 h, study doses 0.45 ug.eq.Kg-1; details: in vivo
[10] = as §1; type: ADME, organism-based, SD; design: dose 1 mg.Kg-1, dosed compound id 2.46808e+06, dosed compound name 14C-Epirubicin, route intravenous, sampling time 0-8 h; details: in vivo
[11] = as §3; type: ADME, organism-based, SD; design: dose 1 mg.Kg-1, dosed compound id 2.46808e+06, dosed compound name 14C-Epirubicin, route intravenous, sampling time 0-8 h; details: in vivo
[12] = (§5) Excretory balance of radioactivity in bile following intravenous 14C-epirubicin at 0.45 ug.eq.Kg-1 dose in rat; type: ADME, organism-based, SD; design: dose 0.45 ug.eq.Kg-1, dosed compound id 2.46808e+06, dosed compound name 14C-Epirubicin, route intravenous, sampling time 0-8 h, study doses 0.45 ug.eq.Kg-1; details: in vivo
[13] = as §4; type: ADME, organism-based, SD; design: dose 0.45 ug.eq.Kg-1, dosed compound id 2.46808e+06, dosed compound name 14C-Epirubicin, route intravenous, sampling time 0-2 h, study doses 0.45 ug.eq.Kg-1; details: in vivo
[14] = as §2; type: ADME, organism-based, SD, Feces; design: dose 1 mg.Kg-1, dosed compound id 2.46808e+06, dosed compound name 14C-Epirubicin, route intravenous, sampling time 0-12 h; details: in vivo
[15] = as §2; type: ADME, organism-based, SD, Feces; design: dose 1 mg.Kg-1, dosed compound id 2.46808e+06, dosed compound name 14C-Epirubicin, route intravenous, sampling time 0-1 h; details: in vivo
[16] = as §3; type: ADME, organism-based, SD; design: dose 1 mg.Kg-1, dosed compound id 2.46808e+06, dosed compound name 14C-Epirubicin, route intravenous, sampling time 0-1 h; details: in vivo
[17] = as §4; type: ADME, organism-based, SD; design: dose 0.45 ug.eq.Kg-1, dosed compound id 2.46808e+06, dosed compound name 14C-Epirubicin, route intravenous, sampling time 0-6 h, study doses 0.45 ug.eq.Kg-1; details: in vivo
[18] = as §1; type: ADME, organism-based, SD; design: dose 1 mg.Kg-1, dosed compound id 2.46808e+06, dosed compound name 14C-Epirubicin, route intravenous, sampling time 0-12 h; details: in vivo
[19] = (§6) Excretory balance of radioactivity in faeces following intravenous 14C-epirubicin at 0.45 ug.eq.Kg-1 dose in rat; type: ADME, organism-based, SD, Feces; design: dose 0.45 ug.eq.Kg-1, dosed compound id 2.46808e+06, dosed compound name 14C-Epirubicin, route intravenous, sampling time 0-24 h, study doses 0.45 ug.eq.Kg-1; details: in vivo
[20] = as §6; type: ADME, organism-based, SD, Feces; design: dose 0.45 ug.eq.Kg-1, dosed compound id 2.46808e+06, dosed compound name 14C-Epirubicin, route intravenous, sampling time 0-4 h, study doses 0.45 ug.eq.Kg-1; details: in vivo
[21] = as §5; type: ADME, organism-based, SD; design: dose 0.45 ug.eq.Kg-1, dosed compound id 2.46808e+06, dosed compound name 14C-Epirubicin, route intravenous, sampling time 0-48 h, study doses 0.45 ug.eq.Kg-1; details: in vivo
[22] = as §3; type: ADME, organism-based, SD; design: dose 1 mg.Kg-1, dosed compound id 2.46808e+06, dosed compound name 14C-Epirubicin, route intravenous, sampling time 0-4 h; details: in vivo
[23] = as §5; type: ADME, organism-based, SD; design: dose 0.45 ug.eq.Kg-1, dosed compound id 2.46808e+06, dosed compound name 14C-Epirubicin, route intravenous, sampling time 0-2 h, study doses 0.45 ug.eq.Kg-1; details: in vivo
[24] = as §6; type: ADME, organism-based, SD, Feces; design: dose 0.45 ug.eq.Kg-1, dosed compound id 2.46808e+06, dosed compound name 14C-Epirubicin, route intravenous, sampling time 0-6 h, study doses 0.45 ug.eq.Kg-1; details: in vivo
[25] = as §1; type: ADME, organism-based, SD; design: dose 1 mg.Kg-1, dosed compound id 2.46808e+06, dosed compound name 14C-Epirubicin, route intravenous, sampling time 0-48 h; details: in vivo
[26] = as §6; type: ADME, organism-based, SD, Feces; design: dose 0.45 ug.eq.Kg-1, dosed compound id 2.46808e+06, dosed compound name 14C-Epirubicin, route intravenous, sampling time 0-2 h, study doses 0.45 ug.eq.Kg-1; details: in vivo
[27] = as §3; type: ADME, organism-based, SD; design: dose 1 mg.Kg-1, dosed compound id 2.46808e+06, dosed compound name 14C-Epirubicin, route intravenous, sampling time 0-48 h; details: in vivo
[28] = as §5; type: ADME, organism-based, SD; design: dose 0.45 ug.eq.Kg-1, dosed compound id 2.46808e+06, dosed compound name 14C-Epirubicin, route intravenous, sampling time 0-6 h, study doses 0.45 ug.eq.Kg-1; details: in vivo
[29] = Decrease in leukocytes observed following reference intravenous doxorubicin at 1 mg.Kg-1 per week in rat; type: toxicity, organism-based, SD, Blood; design: dose 1 mg.Kg-1, dosed compound id 2.46809e+06, dosed compound name Doxorubicin, dose level High, gender Mixed, regimen Once per week, route intravenous, sampling time 36 Week, study doses 0/0.3/0.6/1 mg.Kg-1; details: in vivo
[30] = as §6; type: ADME, organism-based, SD, Feces; design: dose 0.45 ug.eq.Kg-1, dosed compound id 2.46808e+06, dosed compound name 14C-Epirubicin, route intravenous, sampling time 0-1 h, study doses 0.45 ug.eq.Kg-1; details: in vivo
[31] = as §1; type: ADME, organism-based, SD; design: dose 1 mg.Kg-1, dosed compound id 2.46808e+06, dosed compound name 14C-Epirubicin, route intravenous, sampling time 0-24 h; details: in vivo
[32] = as §5; type: ADME, organism-based, SD; design: dose 0.45 ug.eq.Kg-1, dosed compound id 2.46808e+06, dosed compound name 14C-Epirubicin, route intravenous, sampling time 0-4 h, study doses 0.45 ug.eq.Kg-1; details: in vivo
[33] = Excretion of radioactivity in faeces following single intravenous 14C-epirubicin at 75 mg.m-2 dose in cancer patients; type: ADME, organism-based, Feces; design: dose 75 mg.m-2, dosed compound id 2.46808e+06, dosed compound name 14C-Epirubicin, regimen Single, sampling time 10 Day; details: human, in vivo, at 75 mg/m2
[34] = as §2; type: ADME, organism-based, SD, Feces; design: dose 1 mg.Kg-1, dosed compound id 2.46808e+06, dosed compound name 14C-Epirubicin, route intravenous, sampling time 0-8 h; details: in vivo
[35] = as §5; type: ADME, organism-based, SD; design: dose 0.45 ug.eq.Kg-1, dosed compound id 2.46808e+06, dosed compound name 14C-Epirubicin, route intravenous, sampling time 0-1 h, study doses 0.45 ug.eq.Kg-1; details: in vivo
[36] = as §3; type: ADME, organism-based, SD; design: dose 1 mg.Kg-1, dosed compound id 2.46808e+06, dosed compound name 14C-Epirubicin, route intravenous, sampling time 0-6 h; details: in vivo
[37] = as §3; type: ADME, organism-based, SD; design: dose 1 mg.Kg-1, dosed compound id 2.46808e+06, dosed compound name 14C-Epirubicin, route intravenous, sampling time 0-12 h; details: in vivo
[38] = as §6; type: ADME, organism-based, SD, Feces; design: dose 0.45 ug.eq.Kg-1, dosed compound id 2.46808e+06, dosed compound name 14C-Epirubicin, route intravenous, sampling time 0-48 h, study doses 0.45 ug.eq.Kg-1; details: in vivo
[39] = as §1; type: ADME, organism-based, SD; design: dose 1 mg.Kg-1, dosed compound id 2.46808e+06, dosed compound name 14C-Epirubicin, route intravenous, sampling time 0-1 h; details: in vivo
[40] = as §2; type: ADME, organism-based, SD, Feces; design: dose 1 mg.Kg-1, dosed compound id 2.46808e+06, dosed compound name 14C-Epirubicin, route intravenous, sampling time 0-6 h; details: in vivo
[41] = as §4; type: ADME, organism-based, SD; design: dose 0.45 ug.eq.Kg-1, dosed compound id 2.46808e+06, dosed compound name 14C-Epirubicin, route intravenous, sampling time 0-4 h, study doses 0.45 ug.eq.Kg-1; details: in vivo
[42] = as §1; type: ADME, organism-based, SD; design: dose 1 mg.Kg-1, dosed compound id 2.46808e+06, dosed compound name 14C-Epirubicin, route intravenous, sampling time 0-6 h; details: in vivo
[43] = as §6; type: ADME, organism-based, SD, Feces; design: dose 0.45 ug.eq.Kg-1, dosed compound id 2.46808e+06, dosed compound name 14C-Epirubicin, route intravenous, sampling time 0-8 h, study doses 0.45 ug.eq.Kg-1; details: in vivo
[44] = as §4; type: ADME, organism-based, SD; design: dose 0.45 ug.eq.Kg-1, dosed compound id 2.46808e+06, dosed compound name 14C-Epirubicin, route intravenous, sampling time 0-24 h, study doses 0.45 ug.eq.Kg-1; details: in vivo
[45] = as §5; type: ADME, organism-based, SD; design: dose 0.45 ug.eq.Kg-1, dosed compound id 2.46808e+06, dosed compound name 14C-Epirubicin, route intravenous, sampling time 0-24 h, study doses 0.45 ug.eq.Kg-1; details: in vivo
[46] = as §2; type: ADME, organism-based, SD, Feces; design: dose 1 mg.Kg-1, dosed compound id 2.46808e+06, dosed compound name 14C-Epirubicin, route intravenous, sampling time 0-4 h; details: in vivo

With COc1cccc2c1C(=O)c1c(O)c3c(c(O)c1C2=O)C[C@@](O)(C(=O)CO)C[C@@H]3O[C@H]1C[C@H](N)[C@@H](O)[C@H](C)O1 [EPIRUBICIN] the Radiolabel recovery [1] was “OUTCOME = Observed”, the Radiolabel recovery [2] was “OUTCOME = Observed” and the Radiolabel recovery [3] was 18.13%. For the same compound, the Radiolabel recovery [4] was “OUTCOME = Observed”, the Radiolabel recovery [5] was 0.54% and the Radiolabel recovery [6] was 38.44%. The Radiolabel recovery [7] was 4.44%, the Radiolabel recovery [8] was 16% and the Radiolabel recovery [9] was “OUTCOME = Observed”. The Radiolabel recovery [10] was “OUTCOME = Observed”, the Radiolabel recovery [11] was 28.39% and the Radiolabel recovery [12] was 7.05%. For the same compound, the Radiolabel recovery [13] was “OUTCOME = Observed”, the Radiolabel recovery [14] was 1.77% and the Radiolabel recovery [15] was “OUTCOME = Observed”. The Radiolabel recovery [16] was 13.22%, the Radiolabel recovery [17] was “OUTCOME = Observed” and the Radiolabel recovery [18] was 8.56%. For the same compound, the Radiolabel recovery [19] was 26%, the Radiolabel recovery [20] was “OUTCOME = Observed” and the Radiolabel recovery [21] was 17.32%. The Radiolabel recovery [22] was 22.93%, the Radiolabel recovery [23] was 0.27% and the Radiolabel recovery [24] was “OUTCOME = Observed”. The Radiolabel recovery [25] was 14.74%, the Radiolabel recovery [26] was “OUTCOME = Observed” and the Radiolabel recovery [27] was 47.72%. The Radiolabel recovery [28] was 5.17%, the WBC_CHANGE [29] was 45% and the Radiolabel recovery [30] was “OUTCOME = Observed”. The Radiolabel recovery [31] was 12%, the Radiolabel recovery [32] was 2.01% and the Radiolabel recovery [33] was 24%. For the same compound, the Radiolabel recovery [34] was “OUTCOME = Observed”, the Radiolabel recovery [35] was 0.06% and the Radiolabel recovery [36] was 25.25%. The Radiolabel recovery [37] was 30.19%, the Radiolabel recovery [38] was 48.78% and the Radiolabel recovery [39] was “OUTCOME = Observed”. The Radiolabel recovery [40] was 1.18%, the Radiolabel recovery [41] was “OUTCOME = Observed” and the Radiolabel recovery [42] was 7.31%. The Radiolabel recovery [43] was “OUTCOME = Not detectable”, the Radiolabel recovery [44] was 2.14% and the Radiolabel recovery [45] was 14.72%. The Radiolabel recovery [46] was “OUTCOME = Observed”.

From ChEMBL document CHEMBL3508140 (2016)
